Test [1] addresses T1, cysteine desulfurase SufS (SaSufS) (Staphylococcus aureus, UniProt A0A0H2XHJ5). In words: spectrophotometric […] nm assay after […] h incubation; UV-Vis of PLP adduct. Type of test: biochemical.
For test [2], the target named is T1, cysteine desulfurase SufS (SaSufS). Put plainly: spectrophotometric […] nm assay after […] h incubation; Ala-NDA assay (IC50 […]); UV-Vis of PLP adduct. The test is classed as biochemical.

Structures are written as SMILES.

For orientation: IC50 means the concentration that gives 50% inhibition. Higher therefore signals weaker potency.

T1 sequence (A0A0H2XHJ5 1-413): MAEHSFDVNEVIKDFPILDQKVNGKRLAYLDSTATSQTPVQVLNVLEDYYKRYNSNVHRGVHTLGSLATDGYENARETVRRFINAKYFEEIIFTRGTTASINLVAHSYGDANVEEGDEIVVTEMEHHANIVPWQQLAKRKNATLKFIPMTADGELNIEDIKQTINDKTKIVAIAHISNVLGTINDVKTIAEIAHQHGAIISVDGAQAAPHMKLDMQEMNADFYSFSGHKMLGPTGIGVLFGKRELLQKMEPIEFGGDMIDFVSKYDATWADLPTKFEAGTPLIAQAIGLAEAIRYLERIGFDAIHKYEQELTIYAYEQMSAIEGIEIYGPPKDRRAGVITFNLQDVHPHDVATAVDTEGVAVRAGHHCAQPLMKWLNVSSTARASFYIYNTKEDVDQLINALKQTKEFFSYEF

On to `N[C@@H]1CON=C1O` [DCS, D-cycloserine], for which the IC50 in test [1] was 2170 ± 920 µM.

With `N[C@H]1CONC1=O` [LCS, L-cycloserine], the midpoint of inhibition in test [2], the IC50, lay at 62 ± 23 µM.

(Values after publication PMC11851464, “Development of a Spectrophotometric Assay for the Cysteine Desulfurase from Staphylococcus aureus” (Antibiotics, 2025).)
